Literature values, collected in US10634592B2, “Process for microextraction and detection of an analyte” (KING FAHD UNIVERSITY OF PETROLEUM AND MINERALS, priority 2015, dated 2020).

system: not given; details: octanol-water partition coefficient

In order of falling “log Kow” value:
1. BrC(Br)Br [TBM, tribromomethane]  2.38
2. ClC(Br)Br [DBCM, dibromochloromethane]  2.08
3. ClC(Cl)Cl [TCM, trichloromethane]  1.97
4. ClC(Cl)Br [BDCM, bromodichloromethane]  1.88
5. CC(=O)C(Cl)(Cl)Cl [TCP, 1,1,1-trichloro-2-propanone]  1.12
6. CC(=O)C(Cl)Cl [DCP, 1,1-dichloro-2-propanone]  0.20

system: cellular glutathione levels; details: prior to cytotoxic effects

For `CC(=O)C(Cl)Cl` [DCP, 1,1-dichloro-2-propanone], the “Effect on cellular glutathione levels” value is given as “reduce cellular glutathione levels”.
